Experimental data reported in ChEMBL document CHEMBL1201862, “PubChem BioAssay data set” (2004).
Calls of active or inactive are those of the source.

Legend:
Assay type in all cases: functional
[1] = target: Serine/threonine-protein kinase PAK 4 (Homo sapiens, UniProt O96013);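 note: value obtained within a kinome profiling panel in which PAK4 was one of the panel members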
Aurora kinase B = Aurora kinase B (Homo sapiens, UniProt Q96GD4)
[2] = target: Glycogen synthase kinase-3 beta (Homo sapiens, UniProt P49841);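 note: value comes from a broad kinome profiling panel, with GSK3B as the panel member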
[3] = target: Hepatocyte growth factor receptor (Homo sapiens, UniProt P08581);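 note: kinase panel profiling across the kinome, with MET as the panel member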
[4] = target: Fibroblast growth factor receptor 1 (Homo sapiens, UniProt P11362)
[5] = target: Ribosomal protein S6 kinase alpha-3 (Homo sapiens, UniProt P51812);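 note: measured within a kinome-wide profiling panel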
[6] = target: cAMP-dependent protein kinase catalytic subunit alpha (Homo sapiens, UniProt P17612)
[7] = target: Tyrosine-protein kinase JAK3 (Homo sapiens, UniProt P52333)
[8] = target: MAP kinase-activated protein kinase 3 (Homo sapiens, UniProt Q16644);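 note: value comes from a kinome-wide profiling panel in which MAPKAPK3 is one of the panel members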
[9] = target: Tyrosine-protein kinase JAK2 (Homo sapiens, UniProt O60674);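 note: JAK2 tested as one member of a kinase panel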
Aurora kinase A = Aurora kinase A (Homo sapiens, UniProt O14965);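 note: value from the Navigating the Kinome kinase panel profiling, panel entry STK6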
[10] = target: BDNF/NT-3 growth factors receptor (Homo sapiens, UniProt Q16620);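 note: NTRK2 measured as one member of a broad kinome-wide kinase profiling panel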
[11] = target: Macrophage colony-stimulating factor 1 receptor (Homo sapiens, UniProt P07333);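 note: value comes from the Navigating the Kinome screening panel, CSF1R member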
Ephrin type-A receptor 2 = Ephrin type-A receptor 2 (Homo sapiens, UniProt P29317);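 note: EPHA2 tested as one member of a kinome-wide kinase panel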
[12] = target: Mast/stem cell growth factor receptor Kit (Homo sapiens, UniProt P10721);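 note: KIT entry within a kinase panel assay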
[13] = target: Rho-associated protein kinase 1 (Homo sapiens, UniProt Q13464);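 note: measured within a broad kinome-wide panel profiling many kinases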
[14] = target: Mitogen-activated protein kinase 8 (Homo sapiens, UniProt P45983);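 note: value comes from one member of a kinome-wide kinase profiling panel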
[15] = target: Insulin-like growth factor 1 receptor (Homo sapiens, UniProt P08069); assay: Navigating the Kinome. Panel member name: IGF1R
[16] = target: Mitogen-activated protein kinase 9 (Homo sapiens, UniProt P45984);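 note: value from a kinome panel profiling assay, MAPK9 panel entry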
[17] = target: Tyrosine-protein kinase ABL1 (Homo sapiens, UniProt P00519)
[18] = target: Death-associated protein kinase 3 (Homo sapiens, UniProt O43293);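 note: measured as one member of a kinome-wide profiling panel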
[19] = target: T1, Receptor-type tyrosine-protein kinase FLT3 (Homo sapiens, UniProt P36888);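 note: FLT3 was tested as one member of a kinome-wide kinase panel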
T1 sequence (P36888 whole entry): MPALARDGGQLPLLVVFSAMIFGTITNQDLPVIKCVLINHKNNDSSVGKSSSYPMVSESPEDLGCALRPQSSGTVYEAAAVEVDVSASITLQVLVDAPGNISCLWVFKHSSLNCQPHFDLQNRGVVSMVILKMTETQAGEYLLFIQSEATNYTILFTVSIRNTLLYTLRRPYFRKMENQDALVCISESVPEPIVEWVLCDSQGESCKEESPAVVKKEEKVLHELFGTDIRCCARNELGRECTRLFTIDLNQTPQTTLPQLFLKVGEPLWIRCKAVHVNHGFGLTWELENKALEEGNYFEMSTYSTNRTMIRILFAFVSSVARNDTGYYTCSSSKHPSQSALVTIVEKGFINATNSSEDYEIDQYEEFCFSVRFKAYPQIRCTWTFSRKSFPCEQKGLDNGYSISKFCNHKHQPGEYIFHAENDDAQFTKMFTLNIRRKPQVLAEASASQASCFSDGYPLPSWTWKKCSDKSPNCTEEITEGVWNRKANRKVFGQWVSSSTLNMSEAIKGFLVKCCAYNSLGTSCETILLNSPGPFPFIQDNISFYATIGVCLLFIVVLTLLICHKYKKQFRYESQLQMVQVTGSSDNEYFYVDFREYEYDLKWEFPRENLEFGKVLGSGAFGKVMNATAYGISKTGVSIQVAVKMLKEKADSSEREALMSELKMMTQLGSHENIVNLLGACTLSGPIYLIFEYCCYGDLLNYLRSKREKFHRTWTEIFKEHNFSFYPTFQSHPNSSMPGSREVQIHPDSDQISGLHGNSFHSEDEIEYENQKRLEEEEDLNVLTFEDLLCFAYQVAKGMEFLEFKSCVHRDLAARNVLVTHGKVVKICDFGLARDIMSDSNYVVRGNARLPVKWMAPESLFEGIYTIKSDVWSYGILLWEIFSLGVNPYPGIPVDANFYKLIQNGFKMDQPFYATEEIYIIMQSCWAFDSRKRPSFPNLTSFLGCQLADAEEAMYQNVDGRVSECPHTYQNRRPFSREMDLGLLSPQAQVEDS

[20] = target: Serine/threonine-protein kinase 3 (Homo sapiens, UniProt Q13188);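 note: measured as one member of a kinome-wide kinase panel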
[21] = target: Serine/threonine-protein kinase pim-1 (Homo sapiens, UniProt P11309)
[22] = target: Vascular endothelial growth factor receptor 2 (Homo sapiens, UniProt P35968)
[23] = target: Vascular endothelial growth factor receptor 1 (Homo sapiens, UniProt P17948);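 note: measured within a kinome-wide profiling panel, FLT1 as the panel member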
[24] = target: 5'-AMP-activated protein kinase catalytic subunit alpha-1 (Homo sapiens, UniProt Q13131)
[25] = target: Tyrosine-protein kinase Fyn (Homo sapiens, UniProt P06241)
[26] = target: Glycogen synthase kinase-3 alpha (Homo sapiens, UniProt P49840);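 note: GSK3A result taken from a broad kinome-wide kinase panel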
[27] = target: Dual specificity tyrosine-phosphorylation-regulated kinase 1A (Homo sapiens, UniProt Q13627);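 note: measured against DYRK1A as one member of a broad kinome profiling panel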
Insulin receptor = Insulin receptor (Homo sapiens, UniProt P06213);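 note: insulin receptor kinase tested as one member of a kinome-wide kinase panel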
[28] = target: High affinity nerve growth factor receptor (Homo sapiens, UniProt P04629);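 note: NTRK1 tested as one member of a kinome-wide profiling panel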
Activated CDC42 kinase 1 = Activated CDC42 kinase 1 (Homo sapiens, UniProt Q07912); assay: Navigating the Kinome. Panel member name: ACK1

Mitogen-activated protein kinase 8, sequence (P45983 whole entry): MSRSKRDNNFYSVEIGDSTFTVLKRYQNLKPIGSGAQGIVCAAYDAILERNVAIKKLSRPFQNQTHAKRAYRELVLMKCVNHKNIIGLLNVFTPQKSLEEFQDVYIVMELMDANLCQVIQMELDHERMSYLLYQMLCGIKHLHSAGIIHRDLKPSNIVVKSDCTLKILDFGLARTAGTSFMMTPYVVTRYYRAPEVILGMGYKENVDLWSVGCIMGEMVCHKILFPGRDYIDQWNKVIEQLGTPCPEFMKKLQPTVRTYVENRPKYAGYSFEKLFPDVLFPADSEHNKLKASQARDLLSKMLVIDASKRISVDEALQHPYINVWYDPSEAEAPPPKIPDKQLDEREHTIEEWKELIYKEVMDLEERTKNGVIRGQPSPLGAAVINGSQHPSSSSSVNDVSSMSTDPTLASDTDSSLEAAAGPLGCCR
Mitogen-activated protein kinase 9, sequence (P45984 whole entry): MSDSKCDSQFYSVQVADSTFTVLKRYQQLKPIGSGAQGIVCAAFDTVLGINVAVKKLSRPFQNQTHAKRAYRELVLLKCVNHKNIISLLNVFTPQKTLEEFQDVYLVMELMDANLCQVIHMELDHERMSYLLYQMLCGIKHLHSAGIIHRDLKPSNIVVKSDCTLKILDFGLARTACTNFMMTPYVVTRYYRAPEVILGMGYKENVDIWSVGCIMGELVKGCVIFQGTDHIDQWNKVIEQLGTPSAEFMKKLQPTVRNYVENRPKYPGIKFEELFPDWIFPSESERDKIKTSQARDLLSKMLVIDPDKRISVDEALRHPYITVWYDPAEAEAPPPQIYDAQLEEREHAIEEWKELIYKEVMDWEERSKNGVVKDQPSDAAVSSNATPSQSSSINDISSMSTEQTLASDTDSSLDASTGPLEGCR
Ribosomal protein S6 kinase alpha-3, sequence (P51812 whole entry): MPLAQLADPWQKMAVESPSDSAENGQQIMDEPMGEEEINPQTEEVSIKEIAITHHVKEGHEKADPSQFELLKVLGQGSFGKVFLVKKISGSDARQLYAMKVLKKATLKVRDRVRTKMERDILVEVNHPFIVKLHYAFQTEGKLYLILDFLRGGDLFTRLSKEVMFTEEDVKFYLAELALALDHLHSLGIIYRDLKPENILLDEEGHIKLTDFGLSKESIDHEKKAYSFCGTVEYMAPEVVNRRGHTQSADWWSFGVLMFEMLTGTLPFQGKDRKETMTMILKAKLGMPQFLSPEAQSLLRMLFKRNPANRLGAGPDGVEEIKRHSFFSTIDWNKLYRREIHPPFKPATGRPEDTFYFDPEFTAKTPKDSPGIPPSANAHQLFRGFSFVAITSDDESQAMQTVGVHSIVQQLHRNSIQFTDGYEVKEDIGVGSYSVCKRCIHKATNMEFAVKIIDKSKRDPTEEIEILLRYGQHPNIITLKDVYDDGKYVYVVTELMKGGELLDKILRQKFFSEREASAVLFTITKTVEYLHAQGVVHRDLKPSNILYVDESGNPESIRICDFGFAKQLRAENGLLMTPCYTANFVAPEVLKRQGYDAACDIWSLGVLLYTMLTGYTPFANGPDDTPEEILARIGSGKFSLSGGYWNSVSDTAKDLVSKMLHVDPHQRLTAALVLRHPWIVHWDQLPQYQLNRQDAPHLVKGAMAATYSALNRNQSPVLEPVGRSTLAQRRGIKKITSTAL
Tyrosine-protein kinase Fyn, sequence (P06241 whole entry): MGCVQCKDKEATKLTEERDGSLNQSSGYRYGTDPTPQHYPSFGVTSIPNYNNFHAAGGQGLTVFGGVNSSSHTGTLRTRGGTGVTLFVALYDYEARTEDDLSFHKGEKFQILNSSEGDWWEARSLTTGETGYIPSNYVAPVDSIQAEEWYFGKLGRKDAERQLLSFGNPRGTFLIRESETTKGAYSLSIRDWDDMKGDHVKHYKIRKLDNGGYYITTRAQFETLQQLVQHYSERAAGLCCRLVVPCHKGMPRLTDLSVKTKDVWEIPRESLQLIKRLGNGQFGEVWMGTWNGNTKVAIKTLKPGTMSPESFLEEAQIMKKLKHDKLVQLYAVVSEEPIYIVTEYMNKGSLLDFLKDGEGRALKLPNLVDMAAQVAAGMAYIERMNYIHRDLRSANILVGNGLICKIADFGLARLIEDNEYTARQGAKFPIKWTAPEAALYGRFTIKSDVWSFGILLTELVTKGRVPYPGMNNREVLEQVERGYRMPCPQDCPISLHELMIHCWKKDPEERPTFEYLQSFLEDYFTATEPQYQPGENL
BDNF/NT-3 growth factors receptor, sequence (Q16620 whole entry): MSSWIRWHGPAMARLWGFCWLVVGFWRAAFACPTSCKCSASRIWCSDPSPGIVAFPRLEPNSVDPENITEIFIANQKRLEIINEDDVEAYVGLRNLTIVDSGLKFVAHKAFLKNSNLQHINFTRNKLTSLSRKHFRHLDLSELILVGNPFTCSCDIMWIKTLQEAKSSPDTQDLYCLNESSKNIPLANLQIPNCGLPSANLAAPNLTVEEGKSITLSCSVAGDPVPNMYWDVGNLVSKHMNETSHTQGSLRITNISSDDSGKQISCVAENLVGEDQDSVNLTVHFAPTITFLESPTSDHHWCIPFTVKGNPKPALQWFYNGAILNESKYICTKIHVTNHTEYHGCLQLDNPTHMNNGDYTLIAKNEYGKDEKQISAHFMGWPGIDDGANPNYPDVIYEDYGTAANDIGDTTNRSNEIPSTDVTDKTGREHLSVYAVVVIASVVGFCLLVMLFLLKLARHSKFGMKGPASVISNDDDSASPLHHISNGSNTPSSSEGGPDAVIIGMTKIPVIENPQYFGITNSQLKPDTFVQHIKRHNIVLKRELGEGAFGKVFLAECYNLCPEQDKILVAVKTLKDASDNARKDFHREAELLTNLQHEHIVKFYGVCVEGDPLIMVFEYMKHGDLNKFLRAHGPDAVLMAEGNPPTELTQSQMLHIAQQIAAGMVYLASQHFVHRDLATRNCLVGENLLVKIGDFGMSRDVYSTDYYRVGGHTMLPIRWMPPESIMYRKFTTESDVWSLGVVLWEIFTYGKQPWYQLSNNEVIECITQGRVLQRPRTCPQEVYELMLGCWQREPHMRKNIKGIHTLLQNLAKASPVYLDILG
Tyrosine-protein kinase ABL1, sequence (P00519 whole entry): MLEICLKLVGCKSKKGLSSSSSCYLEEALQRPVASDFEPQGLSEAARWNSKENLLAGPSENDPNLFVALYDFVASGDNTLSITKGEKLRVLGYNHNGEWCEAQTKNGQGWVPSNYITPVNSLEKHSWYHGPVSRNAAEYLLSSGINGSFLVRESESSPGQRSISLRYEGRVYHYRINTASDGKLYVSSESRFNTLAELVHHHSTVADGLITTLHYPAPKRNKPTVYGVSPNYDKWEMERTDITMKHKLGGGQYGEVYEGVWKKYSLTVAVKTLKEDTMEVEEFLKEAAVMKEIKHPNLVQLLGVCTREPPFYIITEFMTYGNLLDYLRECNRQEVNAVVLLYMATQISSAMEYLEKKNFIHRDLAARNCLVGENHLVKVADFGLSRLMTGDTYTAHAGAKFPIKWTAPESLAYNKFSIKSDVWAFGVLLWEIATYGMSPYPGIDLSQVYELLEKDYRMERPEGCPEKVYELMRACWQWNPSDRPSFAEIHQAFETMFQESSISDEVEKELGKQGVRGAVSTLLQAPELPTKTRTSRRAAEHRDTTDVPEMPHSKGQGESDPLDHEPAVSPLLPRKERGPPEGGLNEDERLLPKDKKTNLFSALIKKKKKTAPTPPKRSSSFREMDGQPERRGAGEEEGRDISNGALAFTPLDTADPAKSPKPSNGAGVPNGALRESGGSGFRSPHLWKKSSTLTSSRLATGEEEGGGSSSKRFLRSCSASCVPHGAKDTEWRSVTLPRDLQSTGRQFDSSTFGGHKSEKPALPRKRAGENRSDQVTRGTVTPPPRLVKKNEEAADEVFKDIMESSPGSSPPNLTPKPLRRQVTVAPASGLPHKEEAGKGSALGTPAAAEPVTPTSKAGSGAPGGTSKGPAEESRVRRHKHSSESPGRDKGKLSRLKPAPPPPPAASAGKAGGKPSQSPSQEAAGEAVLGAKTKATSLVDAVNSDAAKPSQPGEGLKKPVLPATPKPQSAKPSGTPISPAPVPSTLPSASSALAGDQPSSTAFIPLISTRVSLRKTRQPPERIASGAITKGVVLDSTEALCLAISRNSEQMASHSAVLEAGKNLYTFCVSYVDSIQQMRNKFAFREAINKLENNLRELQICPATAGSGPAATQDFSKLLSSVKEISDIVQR
Mast/stem cell growth factor receptor Kit, sequence (P10721 whole entry): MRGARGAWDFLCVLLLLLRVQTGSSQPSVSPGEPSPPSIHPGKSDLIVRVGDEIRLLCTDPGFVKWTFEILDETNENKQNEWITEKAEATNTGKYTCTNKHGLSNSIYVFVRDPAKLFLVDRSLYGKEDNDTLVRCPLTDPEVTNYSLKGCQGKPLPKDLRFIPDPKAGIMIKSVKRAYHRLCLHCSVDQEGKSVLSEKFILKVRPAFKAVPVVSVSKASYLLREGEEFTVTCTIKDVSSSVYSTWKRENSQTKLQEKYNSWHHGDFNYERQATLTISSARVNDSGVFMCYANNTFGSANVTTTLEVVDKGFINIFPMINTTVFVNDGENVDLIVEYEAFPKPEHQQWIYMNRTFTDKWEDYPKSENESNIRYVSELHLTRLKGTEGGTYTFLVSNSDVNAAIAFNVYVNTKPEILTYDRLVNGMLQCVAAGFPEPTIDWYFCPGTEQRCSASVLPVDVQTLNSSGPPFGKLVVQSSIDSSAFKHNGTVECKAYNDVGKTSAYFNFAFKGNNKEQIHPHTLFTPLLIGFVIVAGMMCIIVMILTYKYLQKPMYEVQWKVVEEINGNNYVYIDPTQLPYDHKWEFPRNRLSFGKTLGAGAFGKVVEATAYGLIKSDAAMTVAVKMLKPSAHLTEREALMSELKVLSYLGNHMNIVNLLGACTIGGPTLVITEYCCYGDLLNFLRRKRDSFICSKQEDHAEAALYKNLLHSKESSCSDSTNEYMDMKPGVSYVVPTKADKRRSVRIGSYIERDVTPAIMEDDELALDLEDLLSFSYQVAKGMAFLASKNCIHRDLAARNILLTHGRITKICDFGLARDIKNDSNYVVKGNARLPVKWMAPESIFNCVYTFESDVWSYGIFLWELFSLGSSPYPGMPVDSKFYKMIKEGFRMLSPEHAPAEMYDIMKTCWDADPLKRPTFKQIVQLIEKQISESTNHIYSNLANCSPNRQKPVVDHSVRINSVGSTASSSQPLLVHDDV

Row | Compound | Ki [1] | Ki (Aurora kinase B) | Ki [2] | Ki [4] | Ki [5] | Ki [6] | Ki [7] | Ki [9] | Ki (Aurora kinase A) | Ki [10] | Ki [11] | Ki [12] | Ki [13] | Ki [14] | Ki [15] | Ki [16] | Ki [17] | Ki [18] | Ki [19] | Ki [20] | further results
1 | NC(COc1cncc(-c2cc3ccncc3s2)c1)Cc1c[nH]c2ccccc12 (stereo unspecified) | 5010 nM (active) | 794 nM (active) | 12.6 nM (active) | 2510 nM (active) | 25.1 nM (active) | 10 nM (active) | > 1580 nM (inactive) | 1000 nM (active) | > 6310 nM (inactive) | > 5010 nM (inactive) | > 2510 nM (inactive) | 631 nM (active) | 20 nM (active) | 2510 nM (active) | > 1000 nM (inactive) | > 3980 nM (inactive) | > 631 nM (inactive) | 63.1 nM (active) | 251 nM (active) | 794 nM (active) | Ki [3]: > 3160 nM (inactive); Ki [8]: > 10000 nM (inactive); Ki (Ephrin type-A receptor 2): > 3160 nM (inactive); Ki [21]: 79.4 nM (active); Ki [22]: 794 nM (active); Ki [23]: 316 nM (active); Ki [24]: 316 nM (active); Ki [25]: > 794 nM (inactive); Ki [26]: 25.1 nM (active); Ki [27]: 3.98 nM (active); Ki (Insulin receptor): > 5010 nM (inactive); Ki [28]: > 2510 nM (inactive)
2 | CN(C)C1CCC(Nc2nc(Cl)cc(-c3c[nH]c4ncccc34)n2)CC1 (stereo unspecified) | 50.1 nM (active) | 794 nM (active) | 1580 nM (active) | > 3980 nM (inactive) | 63.1 nM (active) | 25.1 nM (active) | 1580 nM (active) | 1260 nM (active) | > 1580 nM (inactive) | 1580 nM (active) | 501 nM (active) | > 3980 nM (inactive) | 1.26 nM (active) | 1000 nM (active) | > 2510 nM (inactive) | > 3980 nM (inactive) | > 3980 nM (inactive) | 63.1 nM (active) | 1580 nM (active) | 79.4 nM (active) | Ki (Activated CDC42 kinase 1): > 3980 nM (inactive); Ki [21]: 251 nM (active); Ki [22]: 1260 nM (active); Ki [23]: > 3980 nM (inactive); Ki [24]: 79.4 nM (active); Ki [25]: > 6310 nM (inactive); Ki [26]: 794 nM (active); Ki [27]: 39.8 nM (active); Ki [28]: > 3160 nM (inactive)
